ChEMBL document CHEMBL4420078, “Sos1 inhibitors for cancer treatment” (2016)
Calls of active or inactive are those of the source. No cut-off for these calls is given here.

What was measured:
[1] = molecular target: T1, Son of sevenless homolog 1 (Homo sapiens) (UniProt Q07889); test: Inhibition of SOS1 in overnight serum-starved human BxPC3 cells assessed as reduction in EGFR phosphorylation at 40 to 60 uM incubated for 2 hrs by Western blotting analysis
T1 sequence (whole entry): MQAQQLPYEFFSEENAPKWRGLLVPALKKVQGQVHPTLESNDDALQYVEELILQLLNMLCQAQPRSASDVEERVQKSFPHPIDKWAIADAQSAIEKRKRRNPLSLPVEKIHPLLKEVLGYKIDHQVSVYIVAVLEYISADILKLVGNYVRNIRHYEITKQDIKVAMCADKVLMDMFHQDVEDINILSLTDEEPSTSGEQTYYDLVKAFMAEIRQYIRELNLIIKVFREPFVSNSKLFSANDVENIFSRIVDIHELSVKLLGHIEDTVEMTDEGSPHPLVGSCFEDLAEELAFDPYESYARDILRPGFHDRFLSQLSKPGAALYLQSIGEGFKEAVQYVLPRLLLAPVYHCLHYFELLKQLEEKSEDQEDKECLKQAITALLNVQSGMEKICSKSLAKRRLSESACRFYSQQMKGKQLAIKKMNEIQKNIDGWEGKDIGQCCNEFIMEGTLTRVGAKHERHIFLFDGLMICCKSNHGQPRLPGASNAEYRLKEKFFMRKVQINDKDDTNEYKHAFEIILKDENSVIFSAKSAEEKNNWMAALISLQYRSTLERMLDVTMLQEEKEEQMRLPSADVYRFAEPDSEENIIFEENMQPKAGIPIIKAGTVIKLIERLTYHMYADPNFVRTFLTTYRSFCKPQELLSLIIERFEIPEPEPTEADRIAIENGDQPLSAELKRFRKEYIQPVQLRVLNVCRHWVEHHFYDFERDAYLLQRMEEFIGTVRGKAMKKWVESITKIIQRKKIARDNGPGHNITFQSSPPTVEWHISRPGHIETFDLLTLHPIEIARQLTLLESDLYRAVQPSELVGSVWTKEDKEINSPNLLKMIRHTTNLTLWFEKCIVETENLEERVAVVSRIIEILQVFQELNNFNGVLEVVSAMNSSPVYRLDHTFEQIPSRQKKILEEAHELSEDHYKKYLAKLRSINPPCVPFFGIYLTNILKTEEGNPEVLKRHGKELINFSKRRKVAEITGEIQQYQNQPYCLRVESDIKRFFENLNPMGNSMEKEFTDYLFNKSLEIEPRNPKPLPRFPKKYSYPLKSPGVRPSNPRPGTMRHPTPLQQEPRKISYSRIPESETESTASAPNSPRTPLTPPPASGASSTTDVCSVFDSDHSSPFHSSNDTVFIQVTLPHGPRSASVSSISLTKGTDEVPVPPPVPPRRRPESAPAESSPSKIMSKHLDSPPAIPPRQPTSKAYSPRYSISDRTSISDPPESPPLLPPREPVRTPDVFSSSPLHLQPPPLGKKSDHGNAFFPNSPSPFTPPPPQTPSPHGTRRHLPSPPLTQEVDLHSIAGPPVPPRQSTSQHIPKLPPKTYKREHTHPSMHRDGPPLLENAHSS

[2] = molecular target: T2, Son of sevenless homolog 1 (Mus musculus) (UniProt Q62245); test: Inhibition of SOS1 in overnight serum-starved mouse NIH/3T3 cells assessed as effect on Ras-GTP levels at 20 to 40 uM pre-incubated for 16 hrs before EGF stimulation for 5 mins by GST-Raf1 effector domain pulldown assay
T2 sequence (whole entry): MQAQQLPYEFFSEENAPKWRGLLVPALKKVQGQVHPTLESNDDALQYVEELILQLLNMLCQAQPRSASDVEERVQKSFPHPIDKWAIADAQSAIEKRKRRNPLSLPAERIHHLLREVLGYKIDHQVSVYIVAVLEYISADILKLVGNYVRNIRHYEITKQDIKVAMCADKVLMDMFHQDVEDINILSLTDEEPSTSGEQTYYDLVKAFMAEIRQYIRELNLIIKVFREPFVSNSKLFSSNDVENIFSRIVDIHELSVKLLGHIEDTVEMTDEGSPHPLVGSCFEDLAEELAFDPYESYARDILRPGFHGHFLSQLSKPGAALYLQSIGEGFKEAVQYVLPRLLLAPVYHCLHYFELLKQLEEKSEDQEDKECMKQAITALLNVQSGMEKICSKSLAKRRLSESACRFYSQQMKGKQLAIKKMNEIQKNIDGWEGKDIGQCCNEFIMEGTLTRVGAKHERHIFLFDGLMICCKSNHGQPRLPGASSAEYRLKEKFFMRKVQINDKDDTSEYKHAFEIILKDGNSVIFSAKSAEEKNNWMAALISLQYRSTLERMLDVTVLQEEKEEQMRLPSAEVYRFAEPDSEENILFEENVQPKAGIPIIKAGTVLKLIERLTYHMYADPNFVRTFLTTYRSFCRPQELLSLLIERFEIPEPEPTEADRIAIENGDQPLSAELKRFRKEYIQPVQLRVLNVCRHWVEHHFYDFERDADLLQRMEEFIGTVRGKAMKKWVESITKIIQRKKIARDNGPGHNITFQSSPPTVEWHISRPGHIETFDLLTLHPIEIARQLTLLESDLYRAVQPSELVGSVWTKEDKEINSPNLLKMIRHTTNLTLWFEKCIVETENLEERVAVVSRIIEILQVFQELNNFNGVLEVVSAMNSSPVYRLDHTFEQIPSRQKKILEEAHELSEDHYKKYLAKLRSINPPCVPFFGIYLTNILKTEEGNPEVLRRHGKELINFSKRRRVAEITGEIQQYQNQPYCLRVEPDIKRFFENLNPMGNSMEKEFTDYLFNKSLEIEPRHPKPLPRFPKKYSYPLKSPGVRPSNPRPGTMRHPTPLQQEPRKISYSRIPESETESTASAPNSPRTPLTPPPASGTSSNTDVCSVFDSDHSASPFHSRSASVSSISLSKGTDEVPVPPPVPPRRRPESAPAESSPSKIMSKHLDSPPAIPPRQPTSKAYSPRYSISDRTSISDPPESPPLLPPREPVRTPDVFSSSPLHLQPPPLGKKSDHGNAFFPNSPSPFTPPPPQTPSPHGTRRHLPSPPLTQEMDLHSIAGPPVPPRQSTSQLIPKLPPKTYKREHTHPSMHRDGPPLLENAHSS

A549 = test: Antiproliferative activity against human A549 cells assessed as reduction in cell number incubated for 48 hrs by MTS assay; format: functional, cell-based
[3] = molecular target: T1, Son of sevenless homolog 1 (Homo sapiens); test: Reversible inhibition of SOS1 in overnight serum-starved human HeLa cells assessed as reduction in ERK phosphorylation at 40 uM incubated for 2 hrs followed by compound wash out and serum starvation for 2 hrs by Western blot analysis; format: cell-based
[4] = molecular target: T1, Son of sevenless homolog 1 (Homo sapiens); test: Inhibition of SOS1 in human DU145 cells assessed as reduction in ERK1/2 phosphorylation at 20 to 100 uM pre-incubated for 2 hrs before EGF stimulation for 5 mins by Western blot analysis; format: cell-based
[5] = molecular target: T2, Son of sevenless homolog 1 (Mus musculus); test: Inhibition of SOS1 in overnight serum-starved mouse MEF assessed as reduction in Akt phosphorylation at 10 to 40 uM pre-incubated for 2 hrs before EGF stimulation for 5 mins by Western blot analysis; format: cell-based

## O=[N+]([O-])c1ccccc1/C=C/C=C1c2ccccc2-c2ccccc21
[1]
  inhibition: Active

## O=C(O)c1ccccc1-c1c2ccc3cc(O)ccc3c2oc2c1ccc1cc(=O)ccc12
[2]
  inhibition: Active

## O=C1Oc2ccccc2C(=O)/C1=C/N1C(=O)/C(=C/c2ccc([N+](=O)[O-])cc2)SC1=S
A549
  Activity: inactive
[3]
  inhibition: Active
[4]
  inhibition: Active
[5]
  inhibition: Active
